The values below are quoted from earlier work in US7621907B2, “Implantable drug delivery system” (Alcon, Inc., priority 2002, dated 2009).

For this series the following is noted: descriptive statement, no test described.

Where a name gives a salt, the structure may show the parent alone.

Turning to `CC(C)NCC(O)COc1ccc(CCOCC2CC2)cc1` (centres unmarked) [betaxolol HCl], the water solubility entry is on record as “relatively high”. Regarding `NC(=O)Cc1cccc(C(=O)c2ccccc2)c1N` [nepafenac], the water solubility result is on record as “relatively low”.
